# Experimental data taken from patent US6590140B1, “Metal-regulated transporters and uses therefor” (Trustees of Dartmouth College, priority 1996, dated 2003).
# Experiments:
# zrt1zrt2 (ZHY3) cells = test: Zinc-limited growth, zrt1zrt2 mutant yeast; format: cell-based, Saccharomyces cerevisiae
# Procedure: Strains used were DY1457 (MATα ade6 can1 his3 leu2 trp1 ura3), ZHY1 (AMTα ade6 can1 his3 leu2 trp1 ura3 zrt1::LEU2), ZHY2 (MATα ade6 can1 his3 leu2 trp1 ura3 zrt2::HIS3), and ZHY3 (MATα ade6 can1 his3 leu2 trp1 ura3 zrt1::LEU2 zrt2::HIS3). Yeast were grown in YP or SD media (Sherman et al. (1986) Methods in Yeast Genetics, Cold Spring Harbor Laboratory, Cold Spring Harbor, N.Y.) supplemented with necessary auxotrophic requirements and either 2% glucose or 2% galactose. Zinc-limiting YP and SD agar plates contained either bathophenanthroline disulfonate (BPS, 200 μM) or EDTA (1 mM), respectively. A liquid zinc-limiting medium (low zinc medium, LZM) was prepared in the same manner as low iron medium (LIM) (Eide and Guarente (1992) J. Gen. Microbiol. 138:347-354) except that the […]. LZM is similar in composition to SD medium with two modifications essential to controlling zinc availability. First, 1 mM EDTA is added to provide buffering for the concentration of free metal ions. Second, the medium is pH-buffered at 4.2 with 20 mM citrate to prevent pH changes that could alter the metal binding ability of EDTA. LZM was also prepared without EDTA ([…]) which is less zinc-limiting because the predominant chelator in this medium, citrate, binds zinc with less affinity than does EDTA. The concentrations of free (i.e. unchelated) zinc were calculated using MAXCHELATOR software (Chris Patton, Stanford University). Cell number in liquid cultures was determined by measuring the absorbance of cell suspensions at 600 nm (OD600) and converting to cell number with a standard curve.
# To further assess the role of the low affinity system as a source of zinc, growth of wild type and zrt2 cells in a zinc-limiting medium, LZM, supplemented with increasing amounts of zinc was examined. The same strains as in FIG. 15 were grown for six hours in SD glucose medium, harvested, washed in LZM, and reinoculated into either LZM (FIG. 15A) or LZM-EDTA (FIG. 15B) supplemented with the indicated concentrations of ZnCl2 ([Zn]T). These cultures were then grown for 16 hours at 30° C. prior to cell number determination. Number of cell divisions are plotted against [Zn]T and the calculated free zinc concentration ([Zn]F). The metal ion buffering capacity of EDTA in LZM is exceeded at concentrations above 100 μM total zinc whereas the metal buffering capacity of citrate in LZM-EDTA maintains a linear relationship between [Zn]T and [Zn]F to concentrations greater than 1 mM. It has been shown previously that the zrt1 mutant requires greater than 500 μM total zinc ([Zn]T) in LZM to undergo its maximum number of cell divisions and this value corresponds to a calculated free (i.e. unchelated) zinc concentration ([Zn]F) of approximately 500 μM. […]
# zrt2 (ZHY2) cells = test: Zinc-limited growth, zrt2 mutant yeast; format: cell-based, Saccharomyces cerevisiae; conditions: zrt2, LZM, 16 hours
# Procedure: Strains used were DY1457 (MATα ade6 can1 his3 leu2 trp1 ura3), ZHY1 (AMTα ade6 can1 his3 leu2 trp1 ura3 zrt1::LEU2), ZHY2 (MATα ade6 can1 his3 leu2 trp1 ura3 zrt2::HIS3), and ZHY3 (MATα ade6 can1 his3 leu2 trp1 ura3 zrt1::LEU2 zrt2::HIS3). Yeast were grown in YP or SD media (Sherman et al. (1986) Methods in Yeast Genetics, Cold Spring Harbor Laboratory, Cold Spring Harbor, N.Y.) supplemented with necessary auxotrophic requirements and either 2% glucose or 2% galactose. Zinc-limiting YP and SD agar plates contained either bathophenanthroline disulfonate (BPS, 200 μM) or EDTA (1 mM), respectively. […] The concentrations of free (i.e. unchelated) zinc were calculated using MAXCHELATOR software (Chris Patton, Stanford University). Cell number in liquid cultures was determined by measuring the absorbance of cell suspensions at 600 nm (OD600) and converting to cell number with a standard curve.
# To further assess the role of the low affinity system as a source of zinc, growth of wild type and zrt2 cells in a zinc-limiting medium, LZM, supplemented with increasing amounts of zinc was examined. […] Number of cell divisions are plotted against [Zn]T and the calculated free zinc concentration ([Zn]F). […]
smiles,measurement,setting,value
[Zn+2] [zinc],calculated free zinc [Zn]F for maximum number of divisions,"zrt1zrt2 (ZHY3) cells; zrt1zrt2, LZM-EDTA, 16 hours",~6 µM
same,total zinc for maximum number of divisions,"zrt1zrt2 (ZHY3) cells; zrt1zrt2, LZM-EDTA, 16 hours",500 µM
same,zinc required in the medium relative to the wild type strain,zrt1zrt2 (ZHY3) cells; zrt1zrt2 vs wild type,greater than 10^5 fold
same,zinc required for growth relative to the zrt1 strain,zrt1zrt2 (ZHY3) cells; zrt1zrt2 vs zrt1,at least 1000 fold
same,calculated free zinc [Zn]F sufficient for maximum growth yield,zrt2 (ZHY2) cells,~6 pM
same,total zinc sufficient for maximum growth yield,zrt2 (ZHY2) cells,10 µM
